Here are results for 12 compounds from US20080161232A1, “C5a Receptor Antagonist” (JERINI AG, priority 2005, published 2008).

Structures are written as SMILES. Starred links: 1 amine or outer side, 2 acyl side, 3 side chain; linkers in the order of their positions; H or OH if unused. Positions of bridges follow the written chain, without caps; N, C: chain ends. Non-standard residues stand in square brackets, D forms with d. Residues, ends and D or L forms follow the SMILES beside them. *: point of attachment. Phe(3-OMe) = COc1cccc(C[C@H](N)C(=O)O)c1; Phe(3-F) = N[C@@H](Cc1cccc(F)c1)C(=O)O; Phe(4-F) = N[C@@H](Cc1ccc(F)cc1)C(=O)O; Bta = N[C@@H](Cc1csc2ccccc12)C(=O)O; d(hCha) = N[C@H](CCC1CCCCC1)C(=O)O; Hyp = O=C(O)[C@@H]1C[C@@H](O)CN1; PhLac = O=C(O)[C@@H](O)Cc1ccccc1; d(hLeu) = CC(C)CC[C@@H](N)C(=O)O; dCha = N[C@H](CC1CCCCC1)C(=O)O; Morpholide = C1CN(*)CCO1; NMeA = CN[C@@H](C)C(=O)O; Nle = CCCC[C@H](N)C(=O)O; Orn = NCCC[C@H](N)C(=O)O; Aze = O=C(O)[C@@H]1CCN1; CO = O=C([*:1])[*:2]

This test deals with T1, human C5aR(CD88) (Homo sapiens, UniProt P21730).
T1 construct: expressed in transfected cells; host or cells: rat basophilic leukemia cells (RBL)
T1 sequence (P21730 1-350): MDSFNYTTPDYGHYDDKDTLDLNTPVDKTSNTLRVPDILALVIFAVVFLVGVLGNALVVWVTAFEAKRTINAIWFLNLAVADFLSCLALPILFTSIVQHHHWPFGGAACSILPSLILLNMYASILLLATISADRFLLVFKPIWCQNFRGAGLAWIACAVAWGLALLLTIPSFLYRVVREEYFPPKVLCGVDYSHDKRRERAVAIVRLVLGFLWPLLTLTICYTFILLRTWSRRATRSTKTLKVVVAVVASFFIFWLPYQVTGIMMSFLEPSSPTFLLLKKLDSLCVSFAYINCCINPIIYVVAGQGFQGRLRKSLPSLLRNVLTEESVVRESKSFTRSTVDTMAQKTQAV
In words: Determination of the IC50 value in an enzyme release assay (functional assay, antagonistic activity). It is filed as cell-based. Particulars: antagonistic activity; IC50 group in enzyme release assay, RBL cells expressing human C5aR(CD88); read-out: activity (group).
With `CC(=O)N[C@@H](Cc1ccccc1)C(=O)N[C@@H](CCCN)C(=O)N1CCC[C@H]1C(=O)N[C@H](CCC1CCCCC1)C(=O)N[C@@H](Cc1c[nH]c2ccccc12)C(=O)N[C@@H](Cc1ccccc1)C(N)=O` [Compound 110, Ac-Phe-Orn-Pro-hch-Trp-Phe-NH2] (Ac-F[Orn]P[d(hCha)]WF-NH2), the IC50 was 0.02 to 0.05 µM.
The result for `CC(=O)NCC(=O)N[C@@H](Cc1ccccc1)C(=O)N[C@@H](CCCN)C(=O)N1CC[C@H]1C(=O)N[C@H](CC1CCCCC1)C(=O)N[C@@H](Cc1csc2ccccc12)C(=O)N[C@@H](Cc1ccccc1)C(N)=O` [Compound 154, Ac-Gly-Phe-Orn-Aze-cha-Bta-Phe-NH2] (Ac-GF[Orn][Aze][dCha][Bta]F-NH2) reads 0.01 to 0.02 µM; that for `CC(C)CC[C@H]1NC(=O)[C@@H]2C[C@@H](O)CN2C(=O)[C@@H](NC(=O)[C@@H](N)Cc2ccccc2)CCCNC(=O)[C@H](CC(C)C)NC(=O)[C@H](Cc2c[nH]c3ccccc23)NC1=O` [Compound 368, H-Phe-[Orn-Hyp-hle-Trp-Leu]] (H-F[Orn][Hyp][d(hLeu)]WL; lactam 2-C), 0.02 to 0.05 µM.
In the case of `CCCC[C@@H]1NC(=O)[C@H](Cc2c[nH]c3ccccc23)NC(=O)[C@@H](CCC(C)C)NC(=O)[C@@H]2C[C@@H](O)CN2C(=O)[C@@H](NC(=O)[C@@H](O)Cc2ccccc2)CCCNC1=O` [Compound 392, Ohf-[Orn-Hyp-hle-Trp-Nle]] (H-[PhLac][Orn][Hyp][d(hLeu)]W[Nle]; lactam 2-C), the IC50 was 0.05 to 0.2 µM.
With `CC(=O)N[C@@H](Cc1ccccc1)C(=O)N[C@H]1CCCNC(=O)[C@H](Cc2ccccc2)NC(=O)[C@H](Cc2ccc(F)cc2)NC(=O)[C@@H](CC2CCCCC2)NC(=O)[C@@H]2CCCN2C1=O` [Compound 187, Ac-Phe-[Orn-Pro-cha-Pff-Phe]] (Ac-F[Orn]P[dCha][Phe(4-F)]F; lactam 2-C) the figure was 0.05 to 0.2 µM.
With `COc1cccc(C[C@H](NC(=O)[C@@H](CCC(C)C)NC(=O)[C@@H]2CCCN2C(=O)[C@H](CCCN)NC(=O)[C@H](Cc2ccccc2)NC(C)=O)C(=O)N[C@@H](Cc2ccccc2)C(N)=O)c1` [Compound 293, Ac-Phe-Orn-Pro-hle-Mmy-Phe-NH2] (Ac-F[Orn]P[d(hLeu)][Phe(3-OMe)]F-NH2) the figure was 0.05 to 0.2 µM; with `CCCC[C@@H]1NC(=O)[C@H](Cc2c[nH]c3ccccc23)NC(=O)[C@@H](CC2CCCCC2)NC(=O)[C@@H]2CCCN2C(=O)[C@@H](NC(=O)[C@H](Cc2ccccc2)NC(=O)N2CCOCC2)CCCNC1=O` [Compound 330, Fbo-Phe-[Orn-Pro-cha-Trp-Nle]] ({Morpholide-CO}-F[Orn]P[dCha]W[Nle]; lactam 2-C), 0.05 to 0.2 µM.
With `CC(=O)N[C@@H](Cc1ccccc1)C(=O)N[C@@H](CCCN)C(=O)N1CCC[C@H]1C(=O)N[C@H](CCC(C)C)C(=O)N[C@@H](Cc1cccc(F)c1)C(=O)N[C@@H](Cc1ccccc1)C(N)=O` [Compound 292, Ac-Phe-Orn-Pro-hle-Mff-Phe-NH2] (Ac-F[Orn]P[d(hLeu)][Phe(3-F)]F-NH2) the figure was 0.05 to 0.2 µM.
As for `CC(=O)N[C@@H](Cc1ccccc1)C(=O)N[C@H]1CCCNC(=O)[C@H](CCCNC(=N)N)NC(=O)[C@H](Cc2c[nH]c3ccccc23)NC(=O)[C@@H](CC2CCCCC2)NC(=O)[C@H](C)N(C)C1=O` [compound 46] (Ac-F[Orn][NMeA][dCha]WR; lactam 2-C), the IC50 was in the range of 0.02 to 0.05 µM.
The result for `COc1cccc(C[C@H](NC(=O)[C@H](Cc2ccc(F)cc2)NC(=O)[C@@H](CCC(C)C)NC(=O)[C@@H]2CCCN2C(=O)[C@H](CCCN)NC(=O)[C@H](Cc2ccccc2)NC(C)=O)C(N)=O)c1` [Compound 300, Ac-Phe-Orn-Pro-hle-Pff-Mmy-NH2] (Ac-F[Orn]P[d(hLeu)][Phe(4-F)][Phe(3-OMe)]-NH2) reads 0.05 to 0.2 µM; that for `CC(=O)N[C@@H](Cc1ccccc1)C(=O)N[C@@H](Cc1csc2ccccc12)C(=O)N1CC[C@H]1C(=O)N[C@H](CC1CCCCC1)C(=O)N[C@@H](Cc1csc2ccccc12)C(=O)N[C@@H](Cc1ccccc1)C(N)=O` [Compound 112, Ac-Phe-Bta-Aze-cha-Bta-Phe-NH2] (Ac-F[Bta][Aze][dCha][Bta]F-NH2), 0.02 to 0.05 µM.
As to `CC(=O)N[C@@H](Cc1ccccc1)C(=O)N[C@@H](CO)C(=O)N1CCC[C@H]1C(=O)N[C@H](CC1CCCCC1)C(=O)N[C@@H](Cc1c[nH]c2ccccc12)C(=O)N[C@@H](Cc1ccccc1)C(N)=O` [Compound 90, Ac-Phe-Ser-Pro-cha-Trp-Phe-NH2] (Ac-FSP[dCha]WF-NH2), the IC50 was in the range of 0.2 to 2 µM.
